Data taken from patent US20110209253A1, “Method for Improving Plant Health” (BASF SE, priority 2008, published 2011).
Read-outs that look alike come from different tables or passages of the source.

Tested on: Wheat plants (Triticum aestivum cv. Monopol)
Assay: Growth-promoting effect on wheat plants after foliar treatment (Example 3)
Format: in vivo
Settings: after 18 days; for activity at 7.5 g/ha / activity at 15 g/ha: Triticum aestivum, 432 h
Experimental: Wheat plants (Triticum aestivum cv. Monopol) were grown in soil with ten plants per pot (13 cm diameter) under greenhouse conditions. Plants at the 2nd leaf stage were sprayed with aqueous solutions of formulated compounds: • Compound 2: 5-Methyl-2-trifluoromethyl-furan-3-carboxylic acid (1-methylcarbamoyl-2-phenyl-ethyl)-amide • Compound 3: 1-Methyl-3-trifluoromethyl-1H-pyrazole-4-carboxylic acid (1-methylcarbamoyl-2-phenyl-ethyl)-amide • Compound 4: Methyl-carbamic acid-2-methylcarbamoyl-2-[(1-methyl-3-trifluoromethyl-1H-pyrazole-4-carbonyl)-amino]-ethyl ester • Compound 5: Methyl-carbamic acid-2-methylcarbamoyl-2-[(1-methyl-3-trifluoromethyl-1H-pyrazole-4-carbonyl)-amino]-1-(tetrahydro-pyran-4-yl)-ethyl ester • Compound 6: Methyl-carbamic acid 1,1-dimethyl-2-methylcarbamoyl-2-[(1-methyl-3-trifluoromethyl-1H-pyrazole-4-carbonyl)-amino]-ethyl ester • Compound 7: 1-Methyl-3-trifluoromethyl-1H-pyrazole-4-carboxylic acid (2-hydroxy-3-methoxy-2-methoxymethyl-1-methylcarbamoyl-propyl)-amide • Compound 8: Methyl-carbamic acid 1,1-bis-methoxymethyl-2-methylcarbamoyl-2-[(1-methyl-3-trifluoromethyl-1H-pyrazole-4-carbonyl)-amino]-ethyl ester • Compound 9: Methyl-carbamic acid (E)-1-methyl-1-{methylcarbamoyl-[(1-methyl-3-trifluoromethyl-1H-pyrazole-4-carbonyl)-amino]-methyl}-but-2-enyl ester The compounds were applied at two different dose rates (15 and 7.5 g ai/ha) and the spray volume was 750 I/ha. Six replicate pots with ten plants each were used per treatment. After 18 days plants were harvested and growth parameters were determined. The recorded parameters were fresh weight (FW) and dry weight (DW). Mean values of results, standard deviation (SD) and percentage to control were calculated.

[1] = 7.5 g/ha foliar spray, read-out: Shoot DW % of control
[2] = 7.5 g/ha foliar spray, read-out: Shoot FW % of control
[3] = 15 g/ha foliar spray, read-out: Shoot DW % of control
[4] = 15 g/ha foliar spray, read-out: Shoot FW % of control

C/C=C/C(C)(OC(=O)NC)C(NC(=O)c1cn(C)nc1C(F)(F)F)C(=O)NC (stereo not shown) [Compound 9, Methyl-carbamic acid (E)-1-methyl-1-{methylcarbamoyl-[(1-methyl-3-trifluoromethyl-1H-pyrazole-4-carbonyl)-amino]-methyl}-but-2-enyl ester]
Shoot DW (7.5 g/ha foliar spray): 3.6 g
Shoot FW (7.5 g/ha foliar spray): 38.8 g
Shoot DW (15 g/ha foliar spray): 3.8 g
Shoot FW (15 g/ha foliar spray): 39.4 g
activity at 7.5 g/ha [1]: 129%
activity at 7.5 g/ha [2]: 127%
activity at 15 g/ha [3]: 135%
activity at 15 g/ha [4]: 129%

CNC(=O)C(NC(=O)c1cn(C)nc1C(F)(F)F)C(O)(COC)COC (stereo not shown) [Compound 7, 1-Methyl-3-trifluoromethyl-1H-pyrazole-4-carboxylic acid (2-hydroxy-3-methoxy-2-methoxymethyl-1-methylcarbamoyl-propyl)-amide]
Shoot DW (7.5 g/ha foliar spray): 3.7 g
Shoot FW (7.5 g/ha foliar spray): 38.7 g
Shoot DW (15 g/ha foliar spray): 3.7 g
Shoot FW (15 g/ha foliar spray): 40.2 g
activity at 7.5 g/ha [1]: 131%
activity at 7.5 g/ha [2]: 126%
activity at 15 g/ha [3]: 133%
activity at 15 g/ha [4]: 131%

CNC(=O)OC(COC)(COC)C(NC(=O)c1cn(C)nc1C(F)(F)F)C(=O)NC (stereo not shown) [Compound 8, Methyl-carbamic acid 1,1-bis-methoxymethyl-2-methylcarbamoyl-2-[(1-methyl-3-trifluoromethyl-1H-pyrazole-4-carbonyl)-amino]-ethyl ester]
Shoot DW (7.5 g/ha foliar spray): 3.9 g
Shoot FW (7.5 g/ha foliar spray): 39.6 g
Shoot DW (15 g/ha foliar spray): 3.7 g
Shoot FW (15 g/ha foliar spray): 39.4 g
activity at 7.5 g/ha [1]: 138%
activity at 7.5 g/ha [2]: 129%
activity at 15 g/ha [3]: 131%
activity at 15 g/ha [4]: 121%

CNC(=O)C(Cc1ccccc1)NC(=O)c1cc(C)oc1C(F)(F)F (stereo not shown) [Compound 2, 5-Methyl-2-trifluoromethyl-furan-3-carboxylic acid (1-methylcarbamoyl-2-phenyl-ethyl)-amide]
Shoot DW (7.5 g/ha foliar spray): 3.8 g
Shoot FW (7.5 g/ha foliar spray): 40.9 g
Shoot DW (15 g/ha foliar spray): 3.7 g
Shoot FW (15 g/ha foliar spray): 38.7 g
activity at 7.5 g/ha [1]: 135%
activity at 7.5 g/ha [2]: 134%
activity at 15 g/ha [3]: 131%
activity at 15 g/ha [4]: 126%

CNC(=O)OCC(NC(=O)c1cn(C)nc1C(F)(F)F)C(=O)NC (stereo not shown) [Compound 4, Methyl-carbamic acid-2-methylcarbamoyl-2-[(1-methyl-3-trifluoromethyl-1H-pyrazole-4-carbonyl)-amino]-ethyl ester]
Shoot DW (7.5 g/ha foliar spray): 3.7 g
Shoot FW (7.5 g/ha foliar spray): 37.7 g
Shoot DW (15 g/ha foliar spray): 3.8 g
Shoot FW (15 g/ha foliar spray): 40.1 g
activity at 7.5 g/ha [1]: 131%
activity at 7.5 g/ha [2]: 123%
activity at 15 g/ha [3]: 137%
activity at 15 g/ha [4]: 131%

CNC(=O)C(Cc1ccccc1)NC(=O)c1cn(C)nc1C(F)(F)F (stereo not shown) [Compound 3, 1-Methyl-3-trifluoromethyl-1H-pyrazole-4-carboxylic acid (1-methylcarbamoyl-2-phenyl-ethyl)-amide]
Shoot DW (7.5 g/ha foliar spray): 3.8 g
Shoot FW (7.5 g/ha foliar spray): 39.4 g
Shoot DW (15 g/ha foliar spray): 3.8 g
Shoot FW (15 g/ha foliar spray): 39.1 g
activity at 7.5 g/ha [1]: 135%
activity at 7.5 g/ha [2]: 129%
activity at 15 g/ha [3]: 135%
activity at 15 g/ha [4]: 128%

CNC(=O)OC(C)(C)C(NC(=O)c1cn(C)nc1C(F)(F)F)C(=O)NC (stereo not shown) [Compound 6, Methyl-carbamic acid 1,1-dimethyl-2-methylcarbamoyl-2-[(1-methyl-3-trifluoromethyl-1H-pyrazole-4-carbonyl)-amino]-ethyl ester]
Shoot DW (7.5 g/ha foliar spray): 3.7 g
Shoot FW (7.5 g/ha foliar spray): 39.2 g
Shoot DW (15 g/ha foliar spray): 3.6 g
Shoot FW (15 g/ha foliar spray): 38.2 g
activity at 7.5 g/ha [1]: 132%
activity at 7.5 g/ha [2]: 128%
activity at 15 g/ha [3]: 130%
activity at 15 g/ha [4]: 125%

CNC(=O)OC(C1CCOCC1)C(NC(=O)c1cn(C)nc1C(F)(F)F)C(=O)NC (stereo not shown) [Compound 5, Methyl-carbamic acid 2-methylcarbamoyl-2-[(1-methyl-3-trifluoromethyl-1H-pyrazole-4-carbonyl)-amino]-1-(tetrahydro-pyran-4-yl)-ethyl ester]
Shoot DW (7.5 g/ha foliar spray): 3.8 g
Shoot FW (7.5 g/ha foliar spray): 41.2 g
Shoot DW (15 g/ha foliar spray): 3.7 g
Shoot FW (15 g/ha foliar spray): 39.6 g
activity at 7.5 g/ha [1]: 135%
activity at 7.5 g/ha [2]: 135%
activity at 15 g/ha [3]: 133%
activity at 15 g/ha [4]: 129%
